The structures appear in SMILES notation. Bounds are passed on as bounds.

As a reminder, the IC50 is the concentration that gives 50% inhibition. By melting point is commonly meant the temperature of the solid-liquid transition.

For one data set, the target named is p110α/p85 (Homo sapiens, UniProt P42336). Briefly: Reversible inhibition of isolated enzyme, lipid kinase assay. It counts as biochemical. The conditions noted are these: recombinant enzyme, 100 μM ATP, 1 hr, average of two experiments. As to the method: Compounds were evaluated for their ability to inhibit Class I PI 3-kinase enzymes p110δ/p85, p110α/p85, and p110β/p85. Reaction mixtures comprising 0.1 μg of a recombinant enzyme, 10 μg of L-α-phosphatidylinositol, and 2× Lipid Kinase Buffer (40 mM Tris-HCl, pH 7.4, 200 mM NaCl, 1 mM EDTA), which contains either DMSO only as a control or the test compound in DMSO (the final DMSO concentration is 1%), were activated by the addition of an ATP mix (5 mM MgCl2, 100 μM ATP, and 0.1 μL [γ^33P]ATP). Reactions were incubated at room temperature for 1 hr, and then stopped by the addition of 1M HCl. The lipids were then extracted using a two step procedure. Firstly, 200 μL of chloroform/methanol (1:1) was added, the biphasic reactions mixed and centrifuged briefly, and the inorganic phase was removed and discarded. Following this, 80 μL of methanol:HCl (1:1) was added and the same procedure followed. The organic phase (70 μL) was then transferred to a clean 1.6 mL tube and the reactions were dried using a Speedvac, with no heating, for 30 min. The reactions were spotted onto TLC plates (Merck Ltd) and developed for 1 hr in propanol-1:2 M acetic acid (13:7). The TLC plates were then dried at room temperature and quantified using a phosphorimager (StormImager, Amersham). Nine compound concentrations were used for each test compound to determine its IC50 value. Each experiment was performed twice and the average IC50 value is used herein.
Chain of p110α/p85 (P42336 whole entry): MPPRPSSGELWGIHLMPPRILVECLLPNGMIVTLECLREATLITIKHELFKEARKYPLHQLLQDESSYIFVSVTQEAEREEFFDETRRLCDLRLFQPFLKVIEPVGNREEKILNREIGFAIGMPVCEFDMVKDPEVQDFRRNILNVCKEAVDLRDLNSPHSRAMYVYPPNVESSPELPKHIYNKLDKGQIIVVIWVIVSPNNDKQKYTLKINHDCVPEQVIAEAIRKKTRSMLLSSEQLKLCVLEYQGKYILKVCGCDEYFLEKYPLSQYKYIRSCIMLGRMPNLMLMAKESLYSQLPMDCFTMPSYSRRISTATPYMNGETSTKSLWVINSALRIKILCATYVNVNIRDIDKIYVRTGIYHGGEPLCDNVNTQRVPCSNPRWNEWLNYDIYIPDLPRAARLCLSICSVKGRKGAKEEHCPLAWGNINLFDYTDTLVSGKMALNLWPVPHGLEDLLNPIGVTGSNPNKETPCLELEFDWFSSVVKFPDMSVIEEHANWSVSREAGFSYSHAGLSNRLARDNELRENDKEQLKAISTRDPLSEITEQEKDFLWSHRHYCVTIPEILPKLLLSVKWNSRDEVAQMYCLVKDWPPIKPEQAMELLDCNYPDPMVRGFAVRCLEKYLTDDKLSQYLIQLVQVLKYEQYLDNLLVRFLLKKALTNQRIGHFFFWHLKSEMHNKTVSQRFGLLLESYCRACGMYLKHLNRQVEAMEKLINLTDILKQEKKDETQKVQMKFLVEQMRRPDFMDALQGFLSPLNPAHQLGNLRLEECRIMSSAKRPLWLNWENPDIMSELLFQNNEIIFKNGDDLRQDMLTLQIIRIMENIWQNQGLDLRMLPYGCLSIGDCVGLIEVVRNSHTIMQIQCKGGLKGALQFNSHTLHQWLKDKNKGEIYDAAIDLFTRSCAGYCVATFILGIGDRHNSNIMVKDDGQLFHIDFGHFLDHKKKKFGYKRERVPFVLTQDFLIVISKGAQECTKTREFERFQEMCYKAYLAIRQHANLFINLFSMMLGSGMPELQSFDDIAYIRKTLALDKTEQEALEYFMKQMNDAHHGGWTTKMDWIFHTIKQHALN
Chain of p110α/p85 (P27986 whole entry partner): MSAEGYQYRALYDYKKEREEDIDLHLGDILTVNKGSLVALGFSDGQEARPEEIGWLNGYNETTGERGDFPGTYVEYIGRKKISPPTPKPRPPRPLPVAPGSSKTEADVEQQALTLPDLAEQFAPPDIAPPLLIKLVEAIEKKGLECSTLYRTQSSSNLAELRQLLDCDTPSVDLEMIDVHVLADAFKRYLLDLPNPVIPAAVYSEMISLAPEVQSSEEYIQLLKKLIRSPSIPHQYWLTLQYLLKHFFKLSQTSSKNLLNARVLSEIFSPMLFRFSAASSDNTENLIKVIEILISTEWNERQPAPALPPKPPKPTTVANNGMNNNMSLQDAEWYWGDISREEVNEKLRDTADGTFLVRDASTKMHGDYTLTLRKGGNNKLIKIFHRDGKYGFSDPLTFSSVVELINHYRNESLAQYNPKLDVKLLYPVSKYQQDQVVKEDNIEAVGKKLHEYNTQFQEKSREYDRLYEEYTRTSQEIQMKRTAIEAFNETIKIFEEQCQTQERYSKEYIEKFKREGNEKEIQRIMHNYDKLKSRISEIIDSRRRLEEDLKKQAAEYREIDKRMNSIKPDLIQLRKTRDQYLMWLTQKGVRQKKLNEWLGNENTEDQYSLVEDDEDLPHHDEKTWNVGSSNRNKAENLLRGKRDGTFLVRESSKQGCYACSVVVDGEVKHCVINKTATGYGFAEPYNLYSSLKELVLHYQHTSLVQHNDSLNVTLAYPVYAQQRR

Regarding `COc1cccc2c1nc(C(F)F)n2-c1nc(N2CCOCC2)nc(N2CCN(C(=O)C(Cl)(Cl)Cl)CC2)n1` [Example 8, 2-(difluoromethyl)-1-{4-(4-morpholinyl)-6-[4-(trichloroacetyl)-1-piperazinyl]-1,3,5-triazin-2-yl}-1H-benzimidazol-4-yl methyl ether], the IC50 at p110α/p85 is < 100 nM.

`COc1cccc2c1nc(C(F)F)n2-c1nc(N2CCOCC2)nc(N2CCN(C(=O)COS(C)(=O)=O)CC2)n1` [Example 9, 2-{4-[4-[2-(difluoromethyl)-4-methoxy-1H-benzimidazol-1-yl]-6-(4-morpholinyl)-1,3,5-triazin-2-yl]-1-piperazinyl}-2-oxoethyl methanesulfonate] yielded a melting point of 176 to 180 °C. In addition, at p110α/p85, the concentration for half-maximal inhibition (IC50) is < 100 nM.

With `COc1cccc2c1nc(C(F)F)n2-c1nc(N2CCOCC2)nc(N2CCN(C(=O)C(C)Cl)CC2)n1` (stereo not drawn) [Example 10, 1-[4-[4-(2-chloropropanoyl)-1-piperazinyl]-6-(4-morpholinyl)-1,3,5-triazin-2-yl]-2-(difluoromethyl)-4-methoxy-1H-benzimidazole], the IC50 at p110α/p85 was < 100 nM.

`COc1cccc2c1nc(C(F)F)n2-c1nc(N2CCOCC2)nc(N2CCN(S(=O)(=O)CCl)CC2)n1` [Example 11, 1-[4-{4-[(chloromethyl)sulfonyl]-1-piperazinyl}-6-(4-morpholinyl)-1,3,5-triazin-2-yl]-2-(difluoromethyl)-4-methoxy-1H-benzimidazole] yielded a melting point of 261 to 263 °C. For the same compound, the half-inhibitory concentration (IC50) on p110α/p85 was < 100 nM.

`COc1cccc2c1nc(C(F)F)n2-c1nc(N2CCOCC2)nc(N2CCN(S(=O)(=O)CBr)CC2)n1` [Example 12, 1-[4-{4-[(bromomethyl)sulfonyl]-1-piperazinyl}-6-(4-morpholinyl)-1,3,5-triazin-2-yl]-2-(difluoromethyl)-4-methoxy-1H-benzimidazole] showed a melting point of 259 to 262 °C. For the same compound, the IC50 at p110α/p85 was < 100 nM.

For `CN(C)CCCOc1cccc2c1nc(C(F)F)n2-c1nc(N2CCOCC2)nc(N2CCN(S(=O)(=O)CCl)CC2)n1` [Example 13], the IC50 at p110α/p85 was > 1000 nM.

With `COc1cccc2c1nc(C(F)F)n2-c1nc(N2CCOCC2)cc(N2CCN(S(=O)(=O)CCl)CC2)n1` [Example 14, 1-[4-{4-[(chloromethyl)sulfonyl]-1-piperazinyl}-6-(4-morpholinyl)-2-pyrimidinyl]-2-(difluoromethyl)-4-methoxy-1H-benzimidazole], the melting point was in the range of 229 to 232 °C. Further, at p110α/p85, the half-maximal inhibitory concentration (IC50) is < 100 nM.

Compound `COc1cccc2c1nc(C(F)F)n2-c1cc(N2CCN(S(=O)(=O)CCl)CC2)nc(N2CCOCC2)n1` [Example 15, 1-[6-{4-[(chloromethyl)sulfonyl]-1-piperazinyl}-2-(4-morpholinyl)-4-pyrimidinyl]-2-(difluoromethyl)-4-methoxy-1H-benzimidazole] registered a melting point of 220 to 222 °C. Moreover, the IC50 on p110α/p85 was in the range of 100 to 1000 nM.

Turning to `COc1cccc2c1nc(C(F)F)n2-c1cc(N2CCOCC2)nc(N2CCN(S(=O)(=O)CCl)CC2)n1` [Example 16, 1-[2-{4-[(chloromethyl)sulfonyl]-1-piperazinyl}-6-(4-morpholinyl)-4-pyrimidinyl]-2-(difluoromethyl)-4-methoxy-1H-benzimidazole], the melting point lay in the range of 215 to 218 °C. On p110α/p85, the half-inhibitory concentration (IC50) was < 100 nM.

`COc1cccc2c1nc(C(F)F)n2-c1nc(C2CCN(C(=O)CCl)CC2)nc(N2CCOCC2)n1` [Example 17, 1-[4-[1-(chloroacetyl)-4-piperidinyl]-6-(4-morpholinyl)-1,3,5-triazin-2-yl]-2-(difluoromethyl)-4-methoxy-1H-benzimidazole]: the melting point lay in the range of 241 to 243 °C. Besides, on p110α/p85, the IC50 was < 100 nM.

`COc1cccc2c1nc(C(F)F)n2-c1nc(NC2CCN(C(=O)CCl)CC2)nc(N2CCOCC2)n1` [Example 18, N-[1-(chloroacetyl)-4-piperidinyl]-4-[2-(difluoromethyl)-4-methoxy-1H-benzimidazol-1-yl]-6-(4-morpholinyl)-1,3,5-triazin-2-amine] yielded a melting point of 270 to 273 °C. Also, at p110α/p85, the IC50 is < 100 nM.

`COc1cccc2c1nc(C(F)F)n2-c1nc(N2CCOCC2)nc(N(C)C2CCN(C(=O)CCl)CC2)n1` [Example 19, N-[1-(chloroacetyl)-4-piperidinyl]-4-[2-(difluoromethyl)-4-methoxy-1H-benzimidazol-1-yl]-N-methyl-6-(4-morpholinyl)-1,3,5-triazin-2-amine] showed a melting point of 211 to 213 °C. Further, on p110α/p85, the IC50 is < 100 nM.

For the compound `CN(C)CCCOc1cccc2c1nc(C(F)F)n2-c1nc(N2CCOCC2)nc(N(C)C2CCN(C(=O)CCl)CC2)n1` [Example 20, N-[1-(chloroacetyl)-4-piperidinyl]-4-{2-(difluoromethyl)-4-[3-(dimethylamino)propoxy]-1H-benzimidazol-1-yl}-N-methyl-6-(4-morpholinyl)-1,3,5-triazin-2-amine], at p110α/p85, the IC50 is 100 to 1000 nM.

In turn, `COc1cccc2c1nc(C(F)F)n2-c1nc(N2CCOCC2)nc(N(C)C2CCN(S(=O)(=O)CCl)CC2)n1` [Example 21, N-{1-[(chloromethyl)sulfonyl]-4-piperidinyl}-4-[2-(difluoromethyl)-4-methoxy-1H-benzimidazol-1-yl]-N-methyl-6-(4-morpholinyl)-1,3,5-triazin-2-amine] had a melting point of 212 to 215 °C. For the same compound, the IC50 on p110α/p85 is < 100 nM.

As for `COc1cccc2c1nc(C(F)F)n2-c1nc(N2CCOCC2)nc(N2CCC(NC(=O)CCl)CC2)n1` [Example 22, 2-chloro-N-{1-[4-[2-(difluoromethyl)-4-methoxy-1H-benzimidazol-1-yl]-6-(4-morpholinyl)-1,3,5-triazin-2-yl]-4-piperidinyl}acetamide], the melting point is 252 to 254 °C. Moreover, the IC50 at p110α/p85 was < 100 nM.

Regarding `COc1cccc2c1nc(C(F)F)n2-c1nc(N2CCOCC2)nc(N2CCC(N(C)C(=O)CCl)CC2)n1` [Example 23, 2-chloro-N-{1-[4-[2-(difluoromethyl)-4-methoxy-1H-benzimidazol-1-yl]-6-(4-morpholinyl)-1,3,5-triazin-2-yl]-4-piperidinyl}-N-methylacetamide], the melting point fell in the range of 206 to 208 °C. Also, the IC50 on p110α/p85 is < 100 nM.

As to `CN(C)CCCOc1cccc2c1nc(C(F)F)n2-c1nc(N2CCOCC2)nc(N2CCC(N(C)C(=O)CCl)CC2)n1` [Example 24, 2-chloro-N-{1-[4-{2-(difluoromethyl)-4-[3-(dimethylamino)propoxy]-1H-benzimidazol-1-yl}-6-(4-morpholinyl)-1,3,5-triazin-2-yl]-4-piperidinyl}-N-methylacetamide], the IC50 at p110α/p85 is 100 to 1000 nM.

For the compound `COc1cccc2c1nc(C(F)F)n2-c1nc(N2CCOCC2)nc(N2CC[C@@H](NC(=O)CCl)C2)n1` [Example 25, 2-chloro-N-{(3R)-1-[4-[2-(difluoromethyl)-4-methoxy-1H-benzimidazol-1-yl]-6-(4-morpholinyl)-1,3,5-triazin-2-yl]pyrrolidinyl}acetamide], the melting point lay within 270 to 275 °C. Besides, the IC50 on p110α/p85 was < 100 nM.

For `COc1cccc2c1nc(C(F)F)n2-c1nc(N2CCOCC2)nc(N2CC[C@H](NC(=O)CCl)C2)n1` [Example 26, 2-chloro-N-{(3S)-1-[4-[2-(difluoromethyl)-4-methoxy-1H-benzimidazol-1-yl]-6-(4-morpholinyl)-1,3,5-triazin-2-yl]pyrrolidinyl}acetamide], at p110α/p85, the IC50 is < 100 nM.

Turning to `COc1cccc2c1nc(C(F)F)n2-c1nc(N2CCOCC2)nc(N2CC[C@@H](N(C)C(=O)CCl)C2)n1` [Example 27, 2-chloro-N-{(3R)-1-[4-[2-(difluoromethyl)-4-methoxy-1H-benzimidazol-1-yl]-6-(4-morpholinyl)-1,3,5-triazin-2-yl]pyrrolidinyl}-N-methylacetamide], the melting point was in the range of 231 to 233 °C. Moreover, the IC50 on p110α/p85 is < 100 nM.

For `COc1cccc2c1nc(C(F)F)n2-c1nc(N2CCOCC2)nc(N2CC[C@H](N(C)C(=O)CCl)C2)n1` [Example 28, 2-chloro-N-{(3S)-1-[4-[2-(difluoromethyl)-4-methoxy-1H-benzimidazol-1-yl]-6-(4-morpholinyl)-1,3,5-triazin-2-yl]pyrrolidinyl}-N-methylacetamide], the melting point lay in the range of 230 to 232 °C. Also, at p110α/p85, the IC50 was < 100 nM.

For `COc1cccc2c1nc(C(F)F)n2-c1nc(N2CCOCC2)nc(N2CCC[C@H](N(C)C(=O)CCl)C2)n1` [Example 36, 2-chloro-N-{(3S)-1-[4-[2-(difluoromethyl)-4-methoxy-1H-benzimidazol-1-yl]-6-(4-morpholinyl)-1,3,5-triazin-2-yl]piperidinyl}-N-methylacetamide], the IC50 at p110α/p85 was < 100 nM.

As to `COc1cccc2c1nc(C(F)F)n2-c1nc(N[C@H]2CCCN(C(=O)CCl)C2)nc(N2CCOCC2)n1` [Example 38], the IC50 at p110α/p85 was < 100 nM.

Take `CN(C)CCCOc1cccc2c1nc(C(F)F)n2-c1nc(OC2CCN(C(=O)CCl)CC2)nc(N2CCOCC2)n1` [Example 46, 3-{[1-[4-{[1-(chloroacetyl)-4-piperidinyl]oxy}-6-(4-morpholinyl)-1,3,5-triazin-2-yl]-2-(difluoromethyl)-1H-benzimidazol-4-yl]oxy}-N,N-dimethyl-1-propanamine]: the IC50 at p110α/p85 fell in the range of 100 to 1000 nM.

The record behind these values is patent US20110053907A1, “SUBSTITUTED PYRIMIDINES AND TRIAZINES AND THEIR USE IN CANCER THERAPY” (Auckland UniServices Limited, priority 2008, published 2011).
